Tests used:
A2780 cells [1] = assay: MTT cytotoxicity assay, A2780; type: cell-based, human; settings: 72 h exposure
HEK293 cells = assay: MTT cytotoxicity assay, HEK293; type: cell-based, human; settings: for SF (selectivity factor): IC50(HEK293)/IC50(A2780); for IC50: MTT assay, 72 h exposure, noncancerous cells
[2] = n-octanol/water distribution coefficient, shake-flask; type: physicochemical; settings: n-octanol/buffered aqueous solution, pH 7.40, UV-vis
Protocol: The titrations were carried out under a nitrogen atmosphere.

[3] = tested on: Pseudomonas aeruginosa PAO1 CECT 4122 (ATCC 15692); assay: MIC microdilution, P. aeruginosa; type: cell-based; settings: planktonic cells; for P. aeruginosa MIC50: growth inhibited at 50%; for P. aeruginosa MIC100: lowest concentration completely inhibiting growth
Protocol: Wild-type P. aeruginosa PAO1 strain CECT 4122 (ATCC 15692) and S. aureus CECT 86 (ATCC 12600) were obtained from the Spanish Type Culture Collection (CECT). All strains were routinely cultivated in TSB medium (Sharlab, Spain) at 37 °C. MIC assays were determined by the microdilution method using TSB broth following the method described by the Clinical and Laboratory standards Institute.[94] In brief, compounds were diluted in a 96-well microtiter plate (tissue culture-treated polystyrene; […]

mouse R2 RNR protein = biological target: T1, mouse R2 RNR protein (Mus musculus, UniProt P11157); assay: Tyrosyl radical reduction in R2 RNR protein by EPR; type: biochemical; settings: 1:1 protein-to-compound ratio, 298 K, presence of DTT, within 90 s
T1 construct: made in house; host or cells: Escherichia coli
T1 sequence (P11157 1-390): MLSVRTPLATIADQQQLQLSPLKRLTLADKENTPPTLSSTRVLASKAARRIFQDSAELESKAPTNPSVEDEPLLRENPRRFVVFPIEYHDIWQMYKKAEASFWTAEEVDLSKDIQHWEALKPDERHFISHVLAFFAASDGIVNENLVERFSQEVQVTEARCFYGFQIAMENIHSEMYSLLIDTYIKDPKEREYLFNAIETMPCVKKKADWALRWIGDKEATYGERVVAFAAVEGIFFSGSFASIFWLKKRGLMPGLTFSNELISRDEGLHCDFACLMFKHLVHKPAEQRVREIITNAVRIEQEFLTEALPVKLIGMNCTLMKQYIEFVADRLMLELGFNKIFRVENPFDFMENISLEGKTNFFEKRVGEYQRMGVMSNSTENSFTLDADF
Protocol: The effects of the most cytotoxic complexes 2 and 5, and the corresponding proligands HL^2 and HL^5, on the mouse R2 tyrosyl radical were investigated by EPR spectroscopy at 30 K. The proligands and their Cu(II) complexes were incubated with the mouse R2 RNR protein at 1:1 protein-to-compound mole ratio at 298 K in the presence or absence of the reducing agent dithiothreitol (DTT), and the time-dependent reduction of the tyrosyl radical was monitored.[39] Tyrosyl radical reduction by the investigated compounds was observed only in the presence of DTT. Upon incubation with HL^2, HL^5, and 2, 5, 50% of tyrosyl radical was reduced within 90 s, after which no further reduction was observed (Figure S15). […] HL^2 and HL^5 (λmax = 312 and 320 nm, respectively) readily reacted with FeSO4·7H2O affording Fe(II) bis-ligand complexes (λmax = 373, 610 nm and λmax = 385, 645 nm, respectively) at both 1:1 and 1:2 Fe-to-ligand mole ratios. […]
The 9.4 GHz EPR spectra were recorded at 30 K on a Bruker EleXsys II E540 EPR spectrometer with an Oxford Instruments ESR900 helium cryostat, essentially as described previously.[51] […]

A2780 cells [4] = assay: Annexin V/PI apoptosis assay; type: cell-based, human; settings: 24 h
Excerpt: To elucidate if observed cytotoxicity of new compounds described in this study was a result of apoptosis induction, we conducted Annexin V/PI apoptosis assay. In brief, fluorochrome-labeled Annexin V reagent is used for detection of membrane phosphatidylserine (PS), which translocates to the cellular surface from the inner side of plasma membrane in the event of early apoptosis. Simultaneously, PI is used for detection of later stages of apoptosis or necrosis, which are characterized by loss of membrane integrity and accumulation of PI inside the cells. […] Results are illustrated in Figure 9. Upon incubation of A2780 cells with increasing concentrations of HL^2 and 2, the dose-dependent increase of apoptotic cells was observed.
A2780 cells were seeded into Cellstar 12-well plates (Greiner Bio-One) at a density of 20 × 10^4 cells/well (1 mL per well). The cells were allowed to resume exponential growth for 24 h and subsequently they were exposed to HL^2 and 2 at different concentrations for 24 h. After the supernatant solution was collected in 1.5 mL microtubes, the cells were washed with 100 μL of trypsin, which was combined with the supernatant. Subsequently, cells were trypsinized with 200 μL of trypsin for 5 min at 37 °C, 5% CO2, washed with 200 μL of PBS, and combined with the supernatant. The cells were centrifuged at 2.5 × 10^3 rpm for 5 min and the pellets were washed once with PBS and resuspended in 500 μL of Annexin V binding buffer and stained with Annexin V-FITC and PI reagents. The fluorescence was immediately analyzed by flow cytometry. The resulting dot blots were acquired from 10 000 events and quantified using Flowjo software (Flowjo LLC, Ashland, OR, USA).

For `[Cl][Cu][S]C(=NN=Cc1ccc(CN2CCOCC2)cn1)Nc1ccccc1` [complex 5, [Cu(L^5)Cl]], the IC50 (A2780 cells [1]) was 9 ± 2 nM, the “SF (selectivity factor)” value (HEK293 cells) was 2.2 and the IC50 (HEK293 cells) was 20 ± 3 nM. The “log D7.4” value [2] was “+1.49 ± 0.06”, the “P. aeruginosa MIC50” value [3] was 200 µg/mL and the “P. aeruginosa MIC100” value [3] was 450 µg/mL. For the same molecule, the tyrosyl radical reduced (mouse R2 RNR protein) was 50%.
With `CN(C)C(=NN=Cc1ccc(CN2CCOCC2)cn1)[S][Cu][Cl]` [complex 2, [Cu(L^2)Cl]] the IC50 (A2780 cells [1]) was 12 ± 2 nM, the “SF (selectivity factor)” value (HEK293 cells) was 2.7 and the IC50 (HEK293 cells) was 32 ± 8 nM. For the same molecule, the “log D7.4” value [2] was “+0.30 ± 0.01”, the “P. aeruginosa MIC50” value [3] was 70 µg/mL and the “P. aeruginosa MIC100” value [3] was 200 µg/mL. The tyrosyl radical reduced (mouse R2 RNR protein) was 50%, the apoptotic cells (A2780 cells [4]; A2780, 2IC50 concentration) was 22.5 ± 5.3% and the apoptotic cells (A2780 cells [4]; A2780, 6IC50 concentration) was 24.4 ± 7.8%.

Source: article PMC6348444, “New Water-Soluble Copper(II) Complexes with Morpholine–Thiosemicarbazone Hybrids: Insights into the Anticancer and Antibacterial Mode of Action” (Journal of Medicinal Chemistry, 2018)
